pIC50: −log10 of the molar value.

This is an account of results in patent publication US20040138199A1, “Benzoxazines and derivatives thereof as therapeutic agents” (priority 2002, published 2004).

This assay has as its target T1, p101/p110γ protein (PI3Kγ) (Homo sapiens, UniProt P48736).
T1 construct: HA; made in house; host or cells: Spodoptera frugiperda (Sf9) cells, baculovirus coinfection
Nature of the assay: PI3Kγ In Vitro Kinase Assay. The class given is biochemical. To be noted: purified recombinant p101/p110γ with G protein β1/γ2 subunits; 20 μM ATP, 25 μM PIP2; 20 minutes at room temperature; radioactive PIP3 readout. The protocol:
Spodtera frugiperda cells, grown in ESF921 media, were coinfected with baculovirus expressing a glu-tagged […] and baculovirus expressing an HA-tagged p110γ, at a 3:1 ratio of p110 baculovirus to p110γ baculovirus. Sf9 cells were grown to 1×10^7 total cells/mL in 10L bioreactors and harvested 48-72 hours post infection. Samples of infected cells were then tested for expression of p101/p110γ PI3 kinase by immunoprecipitation and Western Blot analysis methods (see below).
To purify PI3Kγ, 4 volumes of room temperature hypotonic lysis buffer (1 mM MgCl2, 1 mM DTT, 5 mM EGTA, 1 mM Pefabloc, 0.5 μM aprotinin, […], 2 μM pepstatin, 5 μM E64, pH 8) per gram of cell paste, was poured onto frozen cell pellets with stirring, then lysed in a nitrogen “bomb” at 400 psi (599HC T316, Parr Instrument Co, Moline, Ill.). NaCl was added to 150 mM, and sodium cholate was added to 1% and mixed for another 45 minutes. The lysates were clarified by centrifugation for 25 minutes at 14,000 rpm. The lysates were then loaded over anti-glu-linked Protein-G Sepaharose beads (Covance Research Products, Richmond, Calif.) using 20 mL resin/50 g cell paste. The column was washed with 15 volumes of wash buffer (1 mM DTT, 0.2 mM EGTA, 1 mM Pefabloc, 0.5 μM aprotinin, 5 μM leupeptin, 2 μM pepstatin, 5 μM E64, 150 mM NaCl, 1% sodium cholate, pH 8). PI3Kγ was eluted with 6 column volumes of wash buffer that contain 100 μg/mL of a peptide that competes for binding of the glu tag. The column fractions with the eluted protein (determined by taking OD280 readings) were collected and dialyzed in 0.2 mM EGTA, 1 mM DTT, 1 mM Pefabloc, 5 μM leupeptin, 0.5% sodium cholate, 150 mM NaCl, and 50% glycerol, pH 8. The fractions were stored at −80° C. until further use.
Spodtera frugiperda cells were coinfected with baculovirus expressing a glu-tagged G protein β1 and baculovirus expressing a […] at a 1:1 ratio of glu-tagged G protein β1 baculovirus to G protein β2 baculovirus. Sf9 cells are grown in 10 L bioreactors and harvested 48-72 hours post infection. Samples of infected cells were tested for G protein β1/β2 expression by Western Blot analysis, as described below. Cell lysates were homogenized and loaded onto a column of glu-tagged beads as in Biological Example 1 and competed off the column with a glu peptide as described in Biological Example 1.
The inhibitory properties of the compounds in Table 1 were assayed in an in vitro PI3K assay. In a 96-well polypropylene plate, each well was spotted with 2 μL of 50 times the desired final concentration of compound in DMSO. Purified recombinant p101/p110γ protein (0.03 μg; ˜2.7 nM) and G protein β1/γ2 subunits (0.09 μg; −57.7 nM) for each reaction was combined in the assay buffer (30 mM HEPES, 100 mM NaCl, 1 mM EGTA, and 1 mM DTT). ATP and [γ-^32P-ATP] (0.09 μCi) were added to this mixture so that the final ATP concentration in the reaction was 20 μM. Lipid micelles were formed by sonicating phosphatidylinositol-4,5-diphosphate (PIP2), phosphatidylethanolamine (PE), and Na-cholate in the assay buffer for 10 minutes, adding MgCL2 and incubating on ice for 20 minutes, for final concentrations of 25 μM PIP2, 300 μM PE, 0.02% Na-cholate, and 10 mM MgCl2 in the reaction. The reactions were started by adding equal volumes lipid and enzyme mixture in a total volume of 50 μL, allowed to run for 20 minutes at room temperature, and stopped with 100 μL 75 mM H3PO4. The lipid product was transferred to a glass fiber filter plate and washed with 75 mM H3PO4 several times. The presence of radioactive lipid product (PIP3) was measured by adding Wallac Optiphase mix to each well and counting in a Wallac 1450 Trilux plate reader (PerkinElmer Life Sciences Inc., Boston, Mass. 02118). The IC50 for each compound tested is reported in μM in Table 1: […]

T1 sequence (P48736 whole entry, species assumed): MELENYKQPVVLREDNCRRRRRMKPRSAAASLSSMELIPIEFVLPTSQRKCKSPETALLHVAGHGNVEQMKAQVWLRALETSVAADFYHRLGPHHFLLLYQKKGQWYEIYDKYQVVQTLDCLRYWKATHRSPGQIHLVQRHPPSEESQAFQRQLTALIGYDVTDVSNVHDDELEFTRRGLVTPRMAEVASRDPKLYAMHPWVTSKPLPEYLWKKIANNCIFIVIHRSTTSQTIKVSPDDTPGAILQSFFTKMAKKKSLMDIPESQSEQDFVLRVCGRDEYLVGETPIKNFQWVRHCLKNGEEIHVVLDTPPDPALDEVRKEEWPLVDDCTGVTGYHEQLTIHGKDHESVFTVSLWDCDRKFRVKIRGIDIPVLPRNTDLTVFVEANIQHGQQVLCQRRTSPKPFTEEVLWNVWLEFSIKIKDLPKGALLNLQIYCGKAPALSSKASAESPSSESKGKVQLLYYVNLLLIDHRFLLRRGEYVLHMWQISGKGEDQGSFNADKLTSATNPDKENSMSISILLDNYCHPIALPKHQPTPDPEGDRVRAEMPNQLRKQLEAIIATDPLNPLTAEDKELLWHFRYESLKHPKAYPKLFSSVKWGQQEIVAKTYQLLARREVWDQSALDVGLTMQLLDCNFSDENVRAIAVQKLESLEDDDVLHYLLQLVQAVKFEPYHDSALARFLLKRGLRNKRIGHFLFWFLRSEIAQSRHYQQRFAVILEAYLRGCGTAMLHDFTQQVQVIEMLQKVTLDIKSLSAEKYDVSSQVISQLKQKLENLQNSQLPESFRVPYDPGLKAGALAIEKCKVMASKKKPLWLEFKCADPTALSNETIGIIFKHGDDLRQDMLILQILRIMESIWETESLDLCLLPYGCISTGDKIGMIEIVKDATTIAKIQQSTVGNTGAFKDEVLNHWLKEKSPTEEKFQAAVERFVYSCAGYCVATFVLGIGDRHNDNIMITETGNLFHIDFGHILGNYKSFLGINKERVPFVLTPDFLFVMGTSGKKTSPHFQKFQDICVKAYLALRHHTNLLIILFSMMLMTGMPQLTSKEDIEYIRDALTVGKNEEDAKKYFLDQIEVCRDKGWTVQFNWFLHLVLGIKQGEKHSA
T1 sequence (Q8WYR1 whole entry partner, species assumed): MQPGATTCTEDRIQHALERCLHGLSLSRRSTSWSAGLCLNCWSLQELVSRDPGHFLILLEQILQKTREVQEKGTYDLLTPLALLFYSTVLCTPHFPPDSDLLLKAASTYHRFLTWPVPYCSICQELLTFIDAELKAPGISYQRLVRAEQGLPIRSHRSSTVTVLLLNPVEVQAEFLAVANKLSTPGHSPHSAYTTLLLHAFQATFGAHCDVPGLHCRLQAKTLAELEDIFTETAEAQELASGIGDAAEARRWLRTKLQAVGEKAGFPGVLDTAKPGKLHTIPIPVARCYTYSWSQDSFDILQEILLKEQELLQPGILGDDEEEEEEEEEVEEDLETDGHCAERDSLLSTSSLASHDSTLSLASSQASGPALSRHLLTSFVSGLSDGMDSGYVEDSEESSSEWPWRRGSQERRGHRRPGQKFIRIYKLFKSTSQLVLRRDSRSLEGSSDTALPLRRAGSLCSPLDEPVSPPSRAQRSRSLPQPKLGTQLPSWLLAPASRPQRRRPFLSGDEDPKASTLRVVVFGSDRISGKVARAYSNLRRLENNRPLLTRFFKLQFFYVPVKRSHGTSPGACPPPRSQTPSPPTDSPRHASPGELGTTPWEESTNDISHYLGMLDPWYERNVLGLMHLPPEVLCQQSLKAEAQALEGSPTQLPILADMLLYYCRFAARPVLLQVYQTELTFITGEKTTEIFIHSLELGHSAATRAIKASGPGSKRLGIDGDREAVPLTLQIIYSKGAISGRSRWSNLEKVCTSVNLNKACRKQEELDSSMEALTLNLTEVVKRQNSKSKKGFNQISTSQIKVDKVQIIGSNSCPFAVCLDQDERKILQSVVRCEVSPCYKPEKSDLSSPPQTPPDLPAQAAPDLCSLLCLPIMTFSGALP

The term pIC50 denotes the IC50 on a negative log10 scale, so that one unit is a factor of ten. As to `O=C1NC(=S)SC1=Cc1ccc2c(c1)N(C(=O)c1ccc3ccccc3c1)CCO2` [Example 29, 5-[4-(Naphthalene-2-carbonyl)-3,4-dihydro-2H-1,4-benzoxazin-6-ylmethylene]-2-thioxo-thiazolidin-4-one], the pIC50 is 6.24. Consider “4-(3,5-dimethyl-benzyl)-3,4-dihydro-2H-benzo[1,4]oxazine-6-ylmethylene]-2-thioxo-thiazolidin-4-one [Example 4]”, for which the pIC50 was 6.19. Next, `O=C1NC(=S)SC1=Cc1ccc2c(c1)N(C(=O)Nc1ccccc1OC(F)(F)F)CCO2` [Example 56, 6-(4-Oxo-2-thioxo-thiazolidin-5-ylidenemethyl)-2,3-dihydro-1,4-benzoxazine-4-carboxylic acid (2-trifluoromethoxy-phenyl)-amide]: 6.65; “2-(4-Oxo-2-thioxo-thiazolidin-5-ylidenemethyl)-7,8-dihydro-6H-5-oxa-9-aza-benzocycloheptene-9-carboxylic acid p-tolylamide [Example 110]”: 5.46.

Take `O=C1NC(=S)SC1=Cc1ccc2c(c1)N(C(=O)NC1CCCC1)CCO2` [Example 68, 6-(4-Oxo-2-thioxo-thiazolidin-5-ylidenemethyl)-2,3-dihydro-1,4-benzoxazine-4-carboxylic acid cyclopentylamide]: the pIC50 is 8.10. Next, “2-Thioxo-5-{9-[3-(3-trifluoromethyl-phenyl)-acryloyl]-6,7,8,9-tetrahydro-5-oxa-9-aza-benzocyclohepten-2-ylmethylene}-thiazolidin-4-one [Example 124]”: 5.40; `CC(C(=O)N1CCOc2ccc(C=C3SC(=S)NC3=O)cc21)c1ccccc1` (stereo not shown) [Example 84, 5-[4-(2-Phenyl-propionyl)-3,4-dihydro-2H-benzo[1,4]oxazin-6-ethylene]-2-thioxo-thiazolidin-4-one]: 7.08; `COc1cc(CC(=O)N2CCOc3ccc(C=C4SC(=S)NC4=O)cc32)cc(OC)c1` [Example 73]: 6.94. Take `COc1cc(OC)cc(C(=O)N2CCOc3ccc(C=C4SC(=S)NC4=O)cc32)c1` [Example 14]: the pIC50 was 5.95. Next, “5-[9-(4-Hexyl-benzoyl)-6,7,8,9-tetrahydro-5-oxa-9-aza-benzocyclohepten-2-ylmethylene]-2-thioxo-thiazolidin-4-one [Example 126]”: 5.38; “5-(9-Cyclopropanecarbonyl-6,7,8,9-tetrahydro-5-oxa-9-aza-benzocyclohepten-2-ylmethylene)-2-thioxo-thiazolidin-4-one [Example 104]”: 6.94; `COC(=O)c1ccc(OC(=O)N2CCOc3ccc(C=C4SC(=S)NC4=O)cc32)cc1` [Example 50, 6-(4-Oxo-2-thioxo-thiazolidin-5-ylidenemethyl)-2,3-dihydro-1,4-benzoxazine-4-carboxylic acid 4-methoxycarbonyl-phenyl ester]: 8.15.

Consider `O=C1NC(=S)SC1=Cc1ccc2c(c1)N(C(=O)Oc1ccccc1)CCO2` [Example 17, 6-(4-Oxo-2-thioxo-thiazolidin-5-ylidenemethyl)-2,3-dihydro-1,4-benzoxazine-4-carboxylic acid phenyl ester], for which the pIC50 was 8.52. Next, `O=C1NC(=S)SC1=Cc1ccc2c(c1)N(C(=O)Cc1ccc3ccccc3c1)CCO2` [Example 11, 5-[4-(2-Naphthalen-2-yl-acetyl)-3,4-dihydro-2H-benzo[1,4]oxazine-6-ylmethylene]-2-thioxo-thiazolidin-4-one]: 7.28; `O=C1NC(=S)SC1=Cc1ccc2c(c1)N(C(=O)CCCc1ccccc1)CCO2` [Example 82, 5-[4-(4-Phenyl-butryl)-3,4-dihydro-2H-benzo[1,4]oxazin-6-ethylene]-2-thioxo-thiazolidin-4-one]: 9.00; `O=C1NC(=S)SC1=Cc1ccc2c(c1)N(C(=O)COc1ccc(Cl)cc1)CCO2` [Example 47, 5-{4-[2-(4-Chloro-phenoxy)-acetyl]-3,4-dihydro-2H-1,4-benzoxazin-6-ylmethylene}-2-thioxo-thiazolidin-4-one]: 7.36.
